According to patent US20240261283A1, “PHARMACEUTICAL PREPARATION FOR PREVENTING OR TREATING PULMONARY FIBROSIS” (J2H BIOTECH INC., priority 2021, published 2024):

Legend:
[1] = system: pulmonary fibrosis mouse model induced by radiation; experiment: Radiation-induced pulmonary fibrosis mouse model, collagen deposition by Masson's trichrome staining of lung tissue; type: in vivo, C57BL/6 mice; settings: radiation 90 Gy to chest; oral, twice a day, 14 days; nintedanib 30 mg/kg (G2), Chemical Formula 1 compound 10 mg/kg (G3), combination 10 + 30 mg/kg (G4); compared to vehicle group (G1)
Procedure: The test compound was administered orally to C57BL/6 male 8-week-old mice, and 1 hour later, radiation (90 Gy, 4 mm collimator) was irradiated to the chest at a size of 3 mm. Afterwards, test compounds were administered orally twice a day for 14 days, and then an autopsy was performed. Mouse lung tissue was fixed with 10% formalin, paraffin sections were made, and the degree of collagen deposition within the tissue was confirmed using trichrome staining.
According to Reference Example 1, test compounds were administered to a mouse model of radiation-induced pulmonary fibrosis and an autopsy was performed. Mouse lung tissue was fixed in 10% neutral formalin for one day and paraffin sections were made. To remove paraffin around the tissue, it was sequentially reacted in xylene, 95, 90, and 70% ethanol solutions for 5 minutes each. To activate the tissue antigen, the tissue was immersed in a 0.1 M citric acid (pH 6.0) solution and boiled for 20 minutes. Then, it was sequentially reacted with Bouin's solution for 1 minute, Weigert's hematoxylin for 10 minutes, Phosphotunstic/phosphomolydic acid for 10 minutes, aniline blue for 5 minutes, and 1% acetic acid for 1 minute. Next, after a dehydration process, it was sealed with a cover glass and observed under a microscope (Carl Zeiss Vision).

[2] = system: bleomycin-induced pulmonary fibrosis mouse model; experiment: Bleomycin-induced pulmonary fibrosis mouse model, hydroxyproline in lung tissue lysate by ELISA; type: in vivo, C57BL/6N mice; settings: oral, twice a day, 14 days
Procedure: C57BL/6N mice were anesthetized using isoflurane. Afterwards, an incision was made in the center of the neck to expose the airway. Bleomycin dissolved in physiological saline injection solution was slowly injected at 1.25 mg/kg into the exposed upper respiratory tract using an insulin syringe. Afterwards, the insulin syringe was removed and the incision was sutured. Afterwards, test compounds were administered orally twice a day for 14 days, and then an autopsy was performed. The mouse's left lung tissue was fixed with 10% formalin, paraffin sections were made, and the degree of lung fibrosis was evaluated using H&E staining. The right lung was tissue lysed for qPCR and hydroxyproline measurements. Afterwards, it was used in each experiment to evaluate the expression of lung fibrosis-related genes and the degree of collagen deposition in the lung.
According to Reference Example 2, test compounds were administered to a mouse model of bleomycin-induced pulmonary fibrosis and an autopsy was performed. The left lung tissue of the mouse was fixed in 10% neutral formalin for one day and paraffin sections were made. To remove paraffin around the tissue, it was sequentially reacted in xylene, 95, 90, and 70% ethanol solutions for 5 minutes each. […] The other half of the tissue was lysed and the lysate was analyzed using a hydroxyproline ELISA kit.

SMILES | anti-fibrotic effect of suppressing collagen deposition (trichrome staining, FIGS. 1 and 2) [1] | collagen deposition, primary evaluation index of pulmonary fibrosis (conclusion of Example 2) ([2]; bleomycin-induced model, doses as in Table 2) | expression of hydroxyproline in lung tissue (FIG. 5) ([2]; bleomycin 1.25 mg/kg, Chemical Formula 1 compound 30, 100, 200 mg/kg (G3-G5), combination 60 + 30 mg/kg (G6), nintedanib 60 mg/kg (G7), compared to vehicle group (G2))
C[C@@H]1CN(c2ccc(S(C)(=O)=O)cc2F)CCN1c1nccc(C(=O)N[C@H]2C3CC4CC2C[C@](O)(C4)C3)n1 [compound of Chemical Formula 1, 2-((R)-4-(2-fluoro-4-(methylsulfonyl)phenyl)-2-methylpiperazin-1-yl)-N-((1R,2s,3S,5S,7S)-5-hydroxyadamantan-2-yl)pyrimidine-4-carboxamide] | significantly inhibits collagen deposition | significantly inhibits collagen deposition | –
COC(=O)c1ccc2c(c1)NC(=O)/C2=C(\Nc1ccc(N(C)C(=O)CN2CCN(C)CC2)cc1)c1ccccc1 [nintedanib] | high significance | – | significant differences were confirmed in all administration groups except the nintedanib single administration group (G7)
